Test results reported in ChEMBL document CHEMBL1130989, “Design and synthesis of bio-isosteres of thymidine triphosphate” (Bioorg Med Chem Lett, 1998).

Experiments:
CCRF-CEM [1] = experiment: Dose required for no significant anti-HIV activity against HIV-1 in human lymphocyte CEM cells; type: functional, cell-based
CCRF-CEM [2] = experiment: Dose required for no significant anti-HIV activity against HIV-2 in human lymphocyte CEM cells; type: functional, cell-based
[3] = molecular target: Human immunodeficiency virus type 1 reverse transcriptase (Human immunodeficiency virus 1, UniProt Q72547); experiment: Concentration required for no significant inhibitory activity against HIV-1 reverse transcriptase

SMILES | EC50 (CCRF-CEM [1]) [µM] | EC50 (CCRF-CEM [2]) [µM] | IC50 [3] [µM]
Cc1cn(C2C=CC(CNC(=O)CC3(C)CC(O[Si](c4ccccc4)(c4ccccc4)C(C)(C)C)CN3C(=O)OC(C)(C)C)O2)c(=O)[nH]c1=O (stereo not given) | > 200 | > 200 | > 500
Cc1cn(C2CC(O)C(CNC(=O)CC3(C)CC(O)CN3)O2)c(=O)[nH]c1=O (stereo not given) | > 200 | > 200 | > 500
Cc1cn(C2C=CC(CNC(=O)CC3(C)CC(O)CN3)O2)c(=O)[nH]c1=O (stereo not given) | > 200 | > 200 | > 500
Cc1cn(C2C=CC(CNC(=O)CC3(C)CC(O)CN3C(=O)OC(C)(C)C)O2)c(=O)[nH]c1=O (stereo not given) | > 200 | > 200 | > 500
Cc1cn(C2CC(O[Si](C)(C)C(C)(C)C)C(CNC(=O)CC3(C)CC(O[Si](c4ccccc4)(c4ccccc4)C(C)(C)C)CN3C(=O)OC(C)(C)C)O2)c(=O)[nH]c1=O (stereo not given) | > 200 | > 200 | > 500
